Test results from patent US20090258877A1, “TRIAZOLOTRIAZINES AND TRIAZOLOPYRAZINES AND THEIR USE” (BAYER HEALTHCARE AG, priority 2007, published 2009).
pIC50: −log10 of the molar value.

The compounds below were run against T1, GSK3β (Homo sapiens, UniProt P49841) (assay: GSK3β biochemical in vitro assay (coupled pyruvate kinase/lactate dehydrogenase, NADH fluorescence)). Settings: 5 nM GSK3β, 50 μM ATP, 40 μM GSM substrate, 30° C., 2 hours.
T1 construct: purchased Upstate 14-306
Protocol: The inhibitory activity of active substances is determined in a biochemical assay. The ingredients required for this purpose are mixed in a black 384-well microtitre plate with transparent base (from Greiner, catalogue number 781092). The requirements in this connection for each well of the 384-well microtitre plate are 5 nM GSK3β (from Upstate, catalogue number 14-306), 40 μM GSK3β substrate GSM (sequence H-RRRPASVPPSPSLSRHS-(pS)-HQRR, from Upstate, catalogue number 2-533), 30 μM nicotinamide adenine dinucleotide NADH (Roche Diagnostics, catalogue number 10107735), 50 μM adenosine triphosphate ATP (from Sigma, catalogue number A7966), 2 mM phosphoenolpyruvate (from Roche, catalogue number 128112), and also about 1 U/ml of pyruvate kinase and about 1 U/ml of lactate dehydrogenase, which are present together in a stock formulation (from Roche, catalogue number 10737291001, suspension with about 450 U/ml of pyruvate kinase activity, about 450 U/ml of lactate dehydrogenase activity in […] ammonium sulphate solution pH 6), where 1 unit pyruvate kinase converts, at pH 7.6 and 37° C., 1 μmol of phosphoenolpyruvate into pyruvate per minute, and where 1 unit of lactate dehydrogenase reduces, at pH 7.5 and 37° C., 1 μmol of pyruvate to lactate per minute. The required reaction buffer in which the biochemical reaction takes place consists of 50 mM Trizma hydrochloride Tris-HCl pH: 7.5 (from Sigma, catalogue number T3253), 5 mM magnesium chloride MgCl2 (from Sigma, catalogue number M8266), 0.2 mM DL-dithiothreitol DTT (from Sigma, catalogue number D9779), 2 mM ethylenediaminetetraacetic acid EDTA (from Sigma, catalogue number E6758), 0.01% Triton X-100 (from Sigma, catalogue number T8787) and 0.05% bovine serum albumin BSA (from Sigma, catalogue number B4287).
Active substances are dissolved in dimethyl sulphoxide DMSO (from Sigma, catalogue number D8418) in a concentration of 10 mM. Active substances are added in serial concentrations of 10 μM, 1 μM, 0.1 μM, 0.01 μM, 0.001 μM, 0.0001 μM, 0.00001 μM, 0.000001 μM to the mixtures of the biochemical reaction. As control, dimethyl sulphoxide is added instead of substance in a final concentration of 0.1%.
The reaction is incubated at 30° C. for 2 hours and then the resulting fluorescence is measured in a Tecan Safire-XFLUOR4 instrument, version V4.50 (serial number 12901300283) with the specifications: measurement mode—fluorescence measured from below, excitation wavelength 340 nm, emission wavelength 465 nm, slit width excitation 5 nm, slit width emission 5 nm, gain mode 120, delay 0 μs, number of light flashes per measurement 3, and an integration time of 40 μs.
The activity of the active substances is calculated in relation to these 0% and 100%.

T1 sequence (P49841 whole entry): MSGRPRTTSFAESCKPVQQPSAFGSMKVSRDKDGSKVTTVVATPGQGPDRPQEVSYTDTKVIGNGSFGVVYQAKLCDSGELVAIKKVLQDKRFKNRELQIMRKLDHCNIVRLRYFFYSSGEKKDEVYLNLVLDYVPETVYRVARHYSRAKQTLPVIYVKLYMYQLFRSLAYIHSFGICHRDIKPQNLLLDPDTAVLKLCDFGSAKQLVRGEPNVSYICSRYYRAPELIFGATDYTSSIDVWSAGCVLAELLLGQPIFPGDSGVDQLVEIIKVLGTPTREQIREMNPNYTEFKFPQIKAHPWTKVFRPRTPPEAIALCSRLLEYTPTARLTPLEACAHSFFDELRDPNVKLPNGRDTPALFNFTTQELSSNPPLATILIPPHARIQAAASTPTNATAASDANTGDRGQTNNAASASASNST

pIC50	Structure (SMILES)
7.89	Nc1nc(NCCNc2nc(-c3ccc(Cl)cc3Cl)cn3ncnc23)ccc1C(=O)C(F)(F)F [Example 6, 1-{2-Amino-6-[(2-{[6-(2,4-dichlorophenyl)[1,2,4]triazolo[1,5-a]pyrazin-8-yl]amino}ethyl)amino]-pyridin-3-yl}-2,2,2-trifluoroethanone]
8.04	Nc1nc(NCCNc2nc(-c3ccc(Cl)cc3Cl)nn3cnnc23)ccc1C(=O)C(F)(F)F [Example 8, 1-{2-Amino-6-[(2-{[6-(2,4-dichlorophenyl)[1,2,4]triazolo[3,4-f][1,2,4]triazin-8-yl]amino}ethyl)-amino]pyridin-3-yl}-2,2,2-trifluoroethanone]
8.36	CCC(=O)c1ccc(NC2CCCN(c3nc(-c4ccc(Cl)cc4Cl)nn4cnnc34)C2)nc1N (stereo not shown) [Example 11, 1-[2-Amino-6-({1-[6-(2,4-dichlorophenyl) [1,2,4]triazolo[3,4-f][1,2,4]triazin-8-yl]piperidin-3-yl}-amino)pyridin-3-yl]propan-1-one]
8.49	N#Cc1sc(NCCNc2nc(-c3ccc(Cl)cc3Cl)cn3ncnc23)nc1N [Example 15, 4-Amino-2-[(2-{[6-(2,4-dichlorophenyl)[1,2,4]triazolo[1,5-a]pyrazin-8-yl]amino}ethyl)amino]-1,3-thiazole-5-carbonitrile]
